Our source for the Km and IC50 values is ChEMBL document CHEMBL1123460, “Synthesis and biochemical properties of 8-amino-6-fluoro-9-beta-D-ribofuranosyl-9H-purine” (J Med Chem, 1986).

Data set [1] in a line: Compound was evaluated for the apparent Km value. The data set is classed as ADME.
For the next data set, the system named is HEp-2. As to the kind of experiment: Compound was evaluated for the cytotoxicity against H.Ep.-2 cells. The data set is classed as functional, cell-based. The conditions noted are these: Homo sapiens.
Data set [2] relates to L1210. Put plainly: Compound was evaluated for the cytotoxicity against L1210 cells. The class given is functional, cell-based. The conditions noted are these: Mus musculus.
The subject of data set [3] is L1210. As to the kind of experiment: Compound was evaluated for the cytotoxicity against L1210 cells in presence of coformycin. The conditions noted are these: Mus musculus. The class given is functional, cell-based.
Data set [4] relates to L1210. As to the kind of experiment: Compound was evaluated for the cytotoxicity against L1210 cells in absence of coformycin. The class given is functional, cell-based. The conditions noted are these: Mus musculus.

For the compound `Nc1nc2c(F)ncnc2n1C1O[C@H](CO)[C@@H](O)[C@H]1O` (stereo partly specified), the Km – broadly, the concentration of substrate that gives half-maximal velocity – in data set [1] is 1000 µM. Besides, the IC50 (as a rule, the point on the concentration scale where inhibition reaches its midpoint) in the data set with HEp-2 worked out at 1800 nM; with L1210 [2], 1900 nM.

As for `Nc1ncnc2c1ncn2[C@@H]1O[C@H](CO)[C@@H](O)[C@H]1O` [ADENOSINE], the Km in data set [1] came to 29 µM.

On to `OC[C@H]1O[C@@H](n2cnc3c2N=CNC[C@H]3O)C[C@@H]1O` [PENTOSTATIN], for which the values for the IC50 with L1210 [3] and in the data set with L1210 [4] were 250 nM and 1900 nM, respectively.
